According to patent US20160289188A1, “COMPOSITIONS AND METHODS FOR THE TREATMENT OF VIRAL DISEASES WITH PDE4 MODULATORS” (priority 2013, published 2016):
Read-outs that look alike come from different tables or passages of the source.

Key:
Junin virus = test system: Junin virus; set-up: species or system guinea pigs; details: guinea pig, in vivo
rJunin (rRomero) virus = test system: rJunin (rRomero) virus; set-up: species or system guinea pigs; details: guinea pig, in vivo
Lassa (Josiah) virus = test system: Lassa (Josiah) virus; set-up: species or system guinea pigs; details: guinea pig, in vivo
[1] = Pharmacokinetics and tolerability in guinea pigs (Example 1); details: 50 mg/kg PO, blood by vena cava bleed

SMILES	average weight loss (Junin virus)	survival rate (Junin virus)	temperature findings (febrile, hypothermic) (Junin virus)	(highest) average weight loss (rJunin (rRomero) virus)	survival rate (rJunin (rRomero) virus)	temperature findings (febrile, hypothermic) (rJunin (rRomero) virus)	(highest) average weight loss (Lassa (Josiah) virus)	animals surviving to the end of study (Lassa (Josiah) virus)	temperature findings (febrile, hypothermic) (Lassa (Josiah) virus)	adequacy of the dose according to the pharmacokinetic results [1]	other results
COc1ccc(C(CC(N)=O)N2Cc3ccccc3C2=O)cc1OC (stereo not drawn) [Compound A, 3-(3,4-dimethoxy-phenyl)-3-(1-oxo-1,3-dihydro-isoindol-2-yl)-propionamide]	0.69%	50%	All animals that died were febrile between day +7 and +10 and two were hypothermic on day +14	1.33%	33%	All animals that died were febrile between day +7 and +15 and four out of six were hypothermic before death	12.17%	None of the animals survived	All animals were febrile between day +7 and +19 and two were hypothermic before death	within range	(highest) average weight loss (rJunin (rRomero) virus; po, 50 mg/kg): 5.89%; survival rate (rJunin (rRomero) virus; po, 50 mg/kg): 22%; temperature findings (febrile, hypothermic) (rJunin (rRomero) virus; po, 50 mg/kg): All animals that died were febrile between day +5 and +13 and three out of seven were hypothermic before death; (highest) average weight loss (Lassa (Josiah) virus; po, 50 mg/kg): 5.36%; survival rate (Lassa (Josiah) virus; po, 50 mg/kg): 44%; temperature findings (febrile, hypothermic) (Lassa (Josiah) virus; po, 50 mg/kg): All animals, including the survivors, were febrile between day +7 and +17 and none of the animals were hypothermic before death
CCOc1cc(C(CS(C)(=O)=O)N2Cc3cccc(NC(=O)C4CC4)c3C2=O)ccc1OC (stereo not drawn) [Compound B, N-(2-(1-(3-ethoxy-4-methoxyphenyl)-2-(methylsulfonyl)ethyl)-3-oxoisoindolin-4-yl)cyclopropanecarboxamide]	4.4%	17%	Most of the animals in this group were febrile starting at day +7 but none were recorded as hypothermic	12.41%	11%	All of the animals in this group except the survivor were febrile starting day +7 thru +11 and four were recorded as hypothermic before death	13.08%		All of the animals in this group except the survivor were febrile starting day +8 thru +16 and only one was recorded as hypothermic before death	needed to be increased	survival rate (Lassa (Josiah) virus): 13%
NC(=O)c1ncn([C@@H]2O[C@H](CO)[C@@H](O)[C@H]2O)n1 [Ribavirin, reference compound]			Only 1 animal was febrile on day +27			Only one animal was intermittently febrile between days +16 and +27		only one animal survived	Only one of the two animals that died was febrile once on day +17		animals surviving to the end of study (Junin virus): all 3 animals survived; weight loss up to (Junin virus): up to 5.2%; animals surviving to the end of study (rJunin (rRomero) virus): all 3 animals survived; weight loss of the intermittently febrile animal (rJunin (rRomero) virus): 17.67%; weight loss up to (rJunin (rRomero) virus): up to 3.09%; average group weight loss up to (Lassa (Josiah) virus): up to 15.39%
